Experimental data from ChEMBL document CHEMBL3044988, “QSAR analysis of B-ring-modified diaryl ether derivatives as a InhA inhibitors” (Med Chem Res, 2012).

Legend:
[1] = Partition coefficient, log P of the compound; format: physicochemical; conditions: octanol/water
[2] = target: T1, Enoyl-[acyl-carrier-protein] reductase [NADH] (Mycobacterium tuberculosis, UniProt P9WGR1)
T1 sequence (P9WGR1 whole entry): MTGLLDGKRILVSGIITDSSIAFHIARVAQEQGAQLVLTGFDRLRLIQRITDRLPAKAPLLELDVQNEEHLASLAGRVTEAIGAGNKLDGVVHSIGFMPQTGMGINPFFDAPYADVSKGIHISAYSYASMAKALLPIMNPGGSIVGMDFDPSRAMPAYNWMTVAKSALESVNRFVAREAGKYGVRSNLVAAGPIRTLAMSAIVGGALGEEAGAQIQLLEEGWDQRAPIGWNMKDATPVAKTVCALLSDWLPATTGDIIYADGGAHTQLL
Description: Inhibition of Mycobacterium tuberculosis InhA

Row | Structure (SMILES) | logP ([1]; read-out: logP) | other results
1 | CCCCCCc1ccc(Oc2ccccc2NC(=O)c2ccno2)c(O)c1 | 4.86 | –
2 | CCCCCCc1ccc(Oc2ccc(NC(=O)c3ccno3)cc2)c(O)c1 | 4.86 | –
3 | CCCCCCc1ccc(Oc2cccc(NC(C)=O)c2)c(O)c1 | 5 | IC50 [2]: 0.579 µM
4 | CCCCCCc1ccc(Oc2ncccn2)c(O)c1 | 4.13 | –
5 | CCCCCCc1ccc(Oc2ccc(NC(C)=O)cc2)c(O)c1 | 5 | –
6 | CCCCCCc1ccc(Oc2ccccc2CN2CCN(C)CC2)c(O)c1 | 5.33 | –
7 | CCCCCCc1ccc(Oc2ccc(N)cc2)c(O)c1 | 4.42 | –
8 | CCCCCCc1ccc(Oc2ccc([N+](=O)[O-])cc2)c(O)c1 | – | logP [1]: 4.489
9 | CCCCCCc1ccc(Oc2cccnc2)c(O)c1 | 4.33 | –
10 | CCCCCCc1ccc(Oc2ccccc2[N+](=O)[O-])c(O)c1 | – | logP [1]: 4.489
11 | CCCCCCc1ccc(Oc2ccccn2)c(O)c1 | 5.03 | –
12 | CCCCCCc1ccc(Oc2cccc([N+](=O)[O-])c2)c(O)c1 | 4.49 | –
13 | CCCCCCc1ccc(Oc2ccccc2NC(C)=O)c(O)c1 | 5 | –
14 | CCCCCCc1ccc(Oc2ccncc2)c(O)c1 | 4.33 | –
15 | CCCCCCc1ccc(Oc2cnccn2)c(O)c1 | 4.12 | –
16 | CCCCCCc1ccc(Oc2ccccc2N)c(O)c1 | 4.42 | –
17 | CCCCCCc1ccc(Oc2ccc(CN3CCN(C)CC3)cc2)c(O)c1 | 5.33 | –
18 | CCCCCCc1ccc(Oc2ccccc2)c(O)c1 | 5.64 | –
19 | CCCCCCc1ccc(Oc2cccc(NC(=O)c3ccno3)c2)c(O)c1 | 4.86 | –
20 | CCCCCCc1ccc(Oc2ccc(NC(=O)C(=O)O)cc2)c(O)c1 | 5.59 | –
21 | CCCCCCc1ccc(Oc2cccc(N)c2)c(O)c1 | 4.42 | –
